In PubChem BioAssay AID2060883 (Molecular Pharmacology Branch, DTP, NCI, 2025):

Tested on: 843782-103-R-J1-PDC complex spheroid viability
Assay: Anticancer human tumor 843782-103-R-J1-PDC patient-derived lung adenocarcinoma cell line growth inhibition [RAS]
Details: for IC50: curve of first compound; for viability, T/C: stronger effect = lower value
Description: RAS pathway inhibitors in Combinations in Complex Spheroids
A high-throughput screen of multi-cell type tumor spheroids was designed to identify active combinations of RAS pathway inhibitors and targeted small molecules. Complex spheroids include a stromal component modeled by human endothelial cells (HUVEC) and fibroblasts modeled by human mesenchymal stem cells (MSCs). The concentration ranges selected for each drug and investigational agent were based upon clinically achievable concentrations if the clinical Cmax of the agent was known.
Compounds. The drugs and investigational agents: abemaciclib (NSC768073), cobimetinib (NSC768068), divarasib (GDC6063, NSC841802), docetaxel (NSC628503), GDC-1971 (RLY-1971, NSC841576), gemcitabine (NSC613327), inavolisib (NSC800729), ipatasertib (NSC767898), KB-0742 (NSC834161), MRTX-1133 (NSC836407), osimertinib (NSC779217), RMC-4630 (NSC839698), RMC-6236 (NSC851965), RMC-6291 (NSC852671), Ro-3306 (NSC812927), sapanisertib (NSC764658), SN-38 (NSC673596), staurosporine (NSC755774), SY5609 (NSC837396), and tovorafenib (DAY101, NSC766906), were obtained from the National Cancer Institute (NCI) Developmental Therapeutics Program Chemical Repository. The FDA-approved anticancer drug set is available from the NCI Developmental Therapeutics Program. […] The stock solutions were prepared in dimethyl sulfoxide (DMSO, Sigma-Aldrich, St. Louis, MO, cat. D2650) at 800-fold the tested concentration and stored at -70 degrees C prior to their use. All drugs and investigational agents were tested over a range starting from a high concentration at or near the clinical Cmax and decreasing in half-log increments. If the clinical Cmax for an agent had not been determined, the highest concentration tested was 10 microM.
Cell Culture. All cells were maintained in an incubator at 37 degrees C and 5% CO2 with 95% humidity. The PDC lines were cultured according to standard operating procedures established by the NCI PDMR. All PDCs were thawed and cultured in Matrigel-coated flasks prepared with a working solution of 1X Ham's F-12 nutrient mix, without supplementation (Invitrogen, Waltham, MA, cat. 11765054), 100 U/mL penicillin-streptomycin (Invitrogen, cat. 15140122), and 2.5% Matrigel (Corning Inc., Corning, NY, cat. 354248) for the first three passages. The 362531-283-R-J2-PDC and 782815-120-R-J1-PDC lines were cultured in 6C/Colon 1B media, which includes advanced DMEM/F-12 (Thermo Fisher Scientific, cat. 12634028), 10 mM HEPES (Thermo Fisher Scientific, cat. 15630080), 1X GlutaMAX supplement (Thermo Fisher Scientific, cat. 35050061), 0.1 mg/mL primocin (InvivoGen, San Diego, CA, cat. ant-pm-2), 10% defined fetal bovine serum, heat inactivated (HyClone Laboratories Inc., Logan, UT, cat. SH30070.03HI), 50% L-WRN conditioned media (ATCC, cat. CRL-3276), 1.25 mM N-Acetyl-L-cysteine (Sigma-Aldrich, cat. A9165), 10 mM nicotinamide (Sigma-Aldrich, cat. N0636), 1X B-27 supplement (Thermo Fisher Scientific, cat. 17504044), 1X N-2 supplement (Thermo Fisher Scientific, cat. 17502048), 50 ng/mL human EGF (Thermo Fisher Scientific, cat. PHG0311), and 10 microM Y-27632 dihydrochloride (Tocris Bioscience, cat. 1254). The K12877-001-R-J1-PDC line was cultured in 6I media, which includes all 6C/Colon 1B media plus 10 ng/mL human FGF-10 (PeproTech, cat. 100-26), 1 ng/mL human FGF-2 (PeproTech, cat. 100-18B), 1 µM prostaglandin E2 (Tocris Bioscience, cat. 2296), […] hydrocortisone (Sigma-Aldrich, cat. H4001), and […] bovine insulin (Sigma-Aldrich, cat. I6634). The K86415-001-R-J1-PDC line was cultured in 6D media, which includes all 6C/Colon 1B media components minus the L-WRN conditioned media. The 485176-168-R4-J1-PDC was cultured in PANC media, which includes all 6C/Colon 1B media plus 100 ng/mL human FGF-10 (PeproTech, cat. 100-26), 500 nM SB-431542 (Selleckchem, cat. S1067), and 10 nM gastrin (Tocris Bioscience, cat. 3006). […]
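Further: viability read after seven days of compound exposure.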

Nc1ccn(C2OC(CO)C(O)C2(F)F)c(=O)n1 (configuration not stated) + C=CC(=O)N1CCN(c2nc(OCC3CCCN3C)nc3c(F)c(-c4nc(N)cc(C)c4C(F)(F)F)c(Cl)cc23)C(C)C1
IC50 (second compound 0.00316 µM): 0.0237 µM
IC50 (second compound 0.01 µM): 0.0344 µM
IC50 (second compound 0.0316 µM): 0.0254 µM
IC50 (second compound 0.1 µM): 0.0217 µM
IC50 (second compound 0.316 µM): 0.0231 µM
IC50 (second compound 1 µM): 0.02 µM
viability, T/C (second compound 0.00316 µM, first compound 0.00316 µM): 89.9%
viability, T/C (second compound 0.00316 µM, first compound 0.01 µM): 89.7%
viability, T/C (second compound 0.00316 µM, first compound 0.0316 µM): 36.7%
viability, T/C (second compound 0.00316 µM, first compound 0.1 µM): 3.04%
viability, T/C (second compound 0.00316 µM, first compound 0.316 µM): 1.74%
viability, T/C (second compound 0.00316 µM, first compound 1 µM): 2.04%
viability, T/C (second compound 0.01 µM, first compound 0.00316 µM): 90.6%
viability, T/C (second compound 0.01 µM, first compound 0.01 µM): 87.7%
viability, T/C (second compound 0.01 µM, first compound 0.0316 µM): 53.7%
viability, T/C (second compound 0.01 µM, first compound 0.1 µM): 3.4%
viability, T/C (second compound 0.01 µM, first compound 0.316 µM): 1.89%
viability, T/C (second compound 0.01 µM, first compound 1 µM): 1.3%
viability, T/C (second compound 0.0316 µM, first compound 0.00316 µM): 88.7%
viability, T/C (second compound 0.0316 µM, first compound 0.01 µM): 86.3%
viability, T/C (second compound 0.0316 µM, first compound 0.0316 µM): 41.4%
viability, T/C (second compound 0.0316 µM, first compound 0.1 µM): 4.87%
viability, T/C (second compound 0.0316 µM, first compound 0.316 µM): 1.41%
viability, T/C (second compound 0.0316 µM, first compound 1 µM): 1.39%
viability, T/C (second compound 0.1 µM, first compound 0.00316 µM): 96.5%
viability, T/C (second compound 0.1 µM, first compound 0.01 µM): 82.5%
viability, T/C (second compound 0.1 µM, first compound 0.0316 µM): 34.6%
viability, T/C (second compound 0.1 µM, first compound 0.1 µM): 2.56%
viability, T/C (second compound 0.1 µM, first compound 0.316 µM): 1.84%
viability, T/C (second compound 0.1 µM, first compound 1 µM): 1.83%
viability, T/C (second compound 0.316 µM, first compound 0.00316 µM): 89.9%
viability, T/C (second compound 0.316 µM, first compound 0.01 µM): 82.8%
viability, T/C (second compound 0.316 µM, first compound 0.0316 µM): 37.8%
viability, T/C (second compound 0.316 µM, first compound 0.1 µM): 4.66%
viability, T/C (second compound 0.316 µM, first compound 0.316 µM): 1.55%
viability, T/C (second compound 0.316 µM, first compound 1 µM): 1.83%
viability, T/C (second compound 1 µM, first compound 0.00316 µM): 93%
viability, T/C (second compound 1 µM, first compound 0.01 µM): 80%
viability, T/C (second compound 1 µM, first compound 0.0316 µM): 30.3%
viability, T/C (second compound 1 µM, first compound 0.1 µM): 4.7%
viability, T/C (second compound 1 µM, first compound 0.316 µM): 1.55%
viability, T/C (second compound 1 µM, first compound 1 µM): 1.67%
